Assay results from ChEMBL document CHEMBL1201862, “PubChem BioAssay data set” (2004).
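Values below derive from 48-hour exposures of cells grown in 96-well plates, with endpoints linearly interpolated between the two concentrations bracketing the appropriate inhibition level. GI50 is the concentration that inhibits growth by half.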 Calls of active or inactive are those of the source. Cut-off read from the data, not from the text of the source: active = GI50 up to about 1.1 µM and inactive = higher.

Legend:
Assay in all cases: growth of human tumour cells (NCI), 48 h
DU-145 = test system: DU-145
Malme-3M = test system: Malme-3M
CCRF-CEM = test system: CCRF-CEM
SNB-75 = test system: SNB-75
HCT-15 = test system: HCT-15
HL-60 = test system: HL-60
OVCAR-4 = test system: OVCAR-4
SR = test system: SR
UACC-257 = test system: UACC-257
OVCAR-3 = test system: OVCAR-3
A498 = test system: A498
MCF7 = test system: MCF7
SNB-19 = test system: SNB-19
SF-295 = test system: SF-295
TK-10 = test system: TK-10
MDA-MB-435 = test system: MDA-MB-435
U-251 = test system: U-251
A549 = test system: A549
CAKI-1 = test system: CAKI-1
786-0 = test system: 786-0

| SMILES | GI50 (DU-145) | GI50 (Malme-3M) | GI50 (CCRF-CEM) | GI50 (SNB-75) | GI50 (HCT-15) | GI50 (HL-60) | GI50 (OVCAR-4) | GI50 (SR) | GI50 (UACC-257) | GI50 (OVCAR-3) | GI50 (A498) | GI50 (MCF7) | GI50 (SNB-19) | GI50 (SF-295) | GI50 (TK-10) | GI50 (MDA-MB-435) | GI50 (U-251) | GI50 (A549) | GI50 (CAKI-1) | GI50 (786-0) |
| --- | --- | --- | --- | --- | --- | --- | --- | --- | --- | --- | --- | --- | --- | --- | --- | --- | --- | --- | --- | --- |
| Cc1cccc(/N=N/c2ccc(O)c(CN(C)C)c2)c1 | > 10 µM (inactive) | 10 µM (inactive) | 0.0753 µM (active) | 29 µM (inactive) | 11.2 µM | 23.4 µM (inactive) | 55.3 µM (inactive) | 43.1 µM (inactive) | 17.5 µM (inactive) | 17.2 µM (inactive) | 18.1 µM (inactive) | 39.1 µM (inactive) | 41.9 µM (inactive) | 28.4 µM (inactive) | 22.9 µM (inactive) | 15.2 µM (inactive) | 45.9 µM (inactive) | 32.4 µM (inactive) | 20.7 µM (inactive) | 18.9 µM (inactive) |
| CNN1C(=O)c2c(N)c(C#N)c(-c3ccccc3)c(-c3ccccc3)c2C1=O | > 100 µM (inactive) | > 100 µM (inactive) | 41.1 µM (inactive) | 83.4 µM (inactive) | > 100 µM | 30.5 µM (inactive) | > 100 µM (inactive) | 76.7 µM (inactive) | > 100 µM (inactive) | 34.6 µM (inactive) | > 100 µM (inactive) | 65.8 µM (inactive) | > 100 µM (inactive) | 73.5 µM (inactive) | > 100 µM (inactive) | > 100 µM (inactive) | 78.9 µM (inactive) | > 100 µM (inactive) | > 100 µM (inactive) | 91.6 µM (inactive) |
| COc1ccc(Cc2ccc3nc(O)cc(C)c3c2)cc1S(=O)(=O)O | > 100 µM (inactive) | > 100 µM (inactive) | > 100 µM (inactive) | > 100 µM (inactive) | > 100 µM | > 100 µM (inactive) | > 100 µM (inactive) | > 100 µM (inactive) | > 100 µM (inactive) | > 100 µM (inactive) | > 100 µM (inactive) | > 100 µM (inactive) | > 100 µM (inactive) | > 100 µM (inactive) | > 100 µM (inactive) | > 100 µM (inactive) | > 100 µM (inactive) | > 100 µM (inactive) | > 100 µM (inactive) | > 100 µM (inactive) |
| CN(C)/C=N\c1c(Br)cc(Br)c2nonc12 | > 100 µM (inactive) | > 100 µM (inactive) | > 100 µM (inactive) | 44.3 µM (inactive) | > 100 µM | > 100 µM (inactive) | > 100 µM (inactive) | > 100 µM (inactive) | > 100 µM (inactive) | > 100 µM (inactive) | > 100 µM (inactive) | > 100 µM (inactive) | > 100 µM (inactive) | > 100 µM (inactive) | > 100 µM (inactive) | > 100 µM (inactive) | – | > 100 µM (inactive) | > 100 µM (inactive) | > 100 µM (inactive) |
| COC(=O)c1c(O)ccc2c1c1c(n2CCc2ccccc2)C(=O)c2ccccc2C1 | 31.8 µM (inactive) | 32.3 µM (inactive) | 21.4 µM (inactive) | 26.4 µM (inactive) | 19.7 µM | 28.9 µM (inactive) | 10.7 µM (inactive) | 29.7 µM (inactive) | 18.5 µM (inactive) | 16.1 µM (inactive) | 19.2 µM (inactive) | 14.2 µM (inactive) | 24.8 µM (inactive) | – | 34.3 µM (inactive) | 18.2 µM (inactive) | 21.9 µM (inactive) | 23.5 µM (inactive) | 17.2 µM (inactive) | 17 µM (inactive) |
| O=[N+]([O-])c1ccc(Cl)c(CNc2ncnc3c2ncn3C2CCCCO2)c1 (stereo unspecified) | 29.1 µM (inactive) | 64.9 µM (inactive) | – | 43.6 µM (inactive) | 33.9 µM | 26.8 µM (inactive) | 54.1 µM (inactive) | 18.5 µM (inactive) | – | 34.3 µM (inactive) | 12.4 µM (inactive) | 17.1 µM (inactive) | 61.1 µM (inactive) | 52 µM (inactive) | 31 µM (inactive) | 13.9 µM (inactive) | 32.5 µM (inactive) | 41.7 µM (inactive) | > 100 µM (inactive) | 63.8 µM (inactive) |
